Molecules are shown by their SMILES.

As usually defined, the IC50 is the concentration at which inhibition is half-maximal. In general, Cmax refers to the peak of the concentration-time curve.

Series [1] relates to 5637R. In words: MTT assay (IC50). Type of series: cell-based. Particulars: Homo sapiens, 72 hours. The method, then: (§1) Drug-DNA adduct formation and repair was measured by accelerator mass spectrometry.
To confirm that 5637 was the original ATCC cell line, and that 5637R originated from the parental 5637 cell line, both cultures were sent to the ATCC Cell Line Authentication Service for cell verification per the ATCC protocol. More specifically, fifteen short tandem repeat (STR) loci plus the gender determining locus, amelogenin, were amplified using the commercially available PowerPlex® 16HS Kit from Promega.
(§2) These two cell lines were also cultured with a range of concentrations of cisplatin, carboplatin, gemcitabine, doxorubicin, methotrexate and vinblastine for 72 hours to determine IC50 for these other drugs (FIG. 16C). These drugs were chosen because of their frequent use in the treatment of bladder cancer.

In series [2] the test system is 5637. In words: MTT assay (IC50). Particulars: Homo sapiens, 72 hours. In kind it is cell-based, human. The method, then:
Thus, we measured the IC50 of the six NSCLC cell lines from Example 2 to both cisplatin and carboplatin to determine if the sensitivity of these six NSCLC cell lines to the two drugs are correlated.
(§3) The cell lines were purchased from the American Type Culture Collection (ATCC, Manassas, Va.) and cultured in the recommended media.
as §1, §2
A general note: Formazan colour is commonly taken as a measure of viable cells.

The subject of another series is PBMC. Description: Microdose-induced oxaliplatin-DNA adduct frequency by AMS. Type of series: in vivo, human. As for the experimental part:
The plasma samples were additionally processed to isolate PBMC, and the DNA was extracted and analyzed using AMS to calculate the oxaliplatin-DNA adduct frequency (both monoadducts and diadducts combined) (FIG. 17B). […] These adduct levels then decrease substantially out to 48 hours post microdosing. […] Overall, the plasma PK and time course of oxaliplatin-DNA adduct formation and repair in PBMC allowed determination of the best time to dose patients prior to biopsy in order to maximize the oxaliplatin-DNA adduct formation, allow for repair in those patients with high repair capacity, minimize the risk of radioactive contamination of PBMC and tumor samples, and also minimize the risk of radioactive contamination of the operating room by blood-borne radiocarbon.
Plasma samples were collected, filtered, and counted by liquid scintillation counting to determine plasma oxaliplatin levels. […] The range of microdose-induced adduct levels (frequencies) for the three colorectal patients was 0.1-6 adducts per 10^8 nt.

The subject of series [3] is five bladder cancer cell lines (5637, T24, TCCSUP, HT1197, and J82). In words: Oxaliplatin-DNA adducts by AMS in cell culture. Type of series: cell-based. As for the experimental part:
as §3
Cells were seeded in 60-mm dishes at a density of 1×10^6 cells/dish and allowed to attach overnight in a 37° C. humidified atmosphere containing 5% CO2. […] The cells were then washed twice with phosphate-buffered solution (PBS) and maintained thereafter with oxaliplatin-free culture media. DNA was harvested at hours 0, 2, 4, 8, 24 hours using the modified Wizard procedure described previously. Ten micrograms of DNA per sample was converted to graphite and measured by AMS for ^14C quantification. Triplicate sets of AMS experiments were performed and the data was plotted as time vs oxaliplatin-DNA adducts per 10^8 nt. […] Oxaliplatin-DNA monoadducts could be detected in all cell lines at all time points. […] Therefore, drug-DNA damage from microdoses of oxaliplatin are predictive of the extent of DNA modification caused by the therapeutic dose in cell culture.

For series [4], the system named is 5637R. In words: Oxaliplatin-DNA adduct formation and repair by AMS. In kind it is cell-based, human. The method, then:
(§4) To characterize the oxaliplatin-DNA adduct frequency in these cell lines, cells from each cell line were seeded in 60-mm dishes at a density of 1×10^6 cells/dish and allowed to attach overnight in a 37° C. humidified atmosphere containing 5% CO2. […] The cells were then washed twice with phosphate-buffered solution (PBS) and maintained thereafter with oxaliplatin-free culture media. DNA was harvested at hours 0, 2, 4, 8, 24, 28 and 48 hours using a Promega Wizard DNA Purification Kit. Ten micrograms of DNA per sample was converted to graphite and measured by AMS for ^14C quantification. Triplicate sets of AMS experiments were performed and the data was plotted as time vs oxaliplatin-DNA adducts per 10^8 nt.
(§5) Statistics were calculated with n=3 for each cell line. ANOVA analysis of IC50 and AUC data were based on a one-sided t-test.

In series [5] the test system is 5637. Description: Oxaliplatin-DNA adduct formation and repair by AMS. In kind it is cell-based, human. As for the experimental part:
as §4, §5

Series [6] is classed as physicochemical. To be noted: 0.5 mg/mL in water.
Method: Radiolabeled carboplatin containing C^14 carbon atoms in the cyclobutane dicarboxylic acid group was formulated for human use as a sterile, pyrogen free solution at 5 mg/mL in water.
A further series concerns cancer patients. Description: Patient toxicity related to the microdose. To be noted: IV microdose, 2.0×10^6 DPM/kg. Type of series: in vivo, human.
The nature of series [7]: Human plasma pharmacokinetics of oxaliplatin microdose. To be noted: metastatic breast cancer patient, IV microdose. In kind it is in vivo.
Method: Single agent oxaliplatin chemotherapy is given by IV at a personalized dose of 130 mg/m^2 of body surface area using the Du Bois and Du Bois formula (Du Bois, D., and E. F. Du Bois. “A formula to estimate the approximate surface area if height and weight be known. 1916.” Nutrition (Burbank, Los Angeles County, Calif.) 5.5 (1989): 303).
Radiolabeled oxaliplatin containing C^14 carbon atoms in the cyclohexane ring was formulated for human use as a sterile, pyrogen free solution at 0.5 mg/mL in water. […] Unlabeled oxaliplatin and [^14C]oxaliplatin were mixed just before dosing to achieve the required microdose, and injected through the peripheral vein at one arm. Peripheral blood specimens were drawn into BD Vacutainer CPT' tubes with sodium heparin from the other arm at specific time points before and after the administration of the microdose. Plasma samples collected at −5 min, 5 min, 15 min, 30 min, 2 h, 4 h, 8 h, 24 h, and 48 h post microdose injection were analyzed by liquid scintillation counting (FIG. 17A).
The conditions of series [8]: cited from earlier work.
A further series has as its system A549 tumor xenograph. Description: Tumor response to therapeutic carboplatin in xenograft. In kind it is in vivo, nude mice. To be noted: single IV 37.3 mg/kg, 14 days. The text has this:
(§6) Xenograft mouse tumors consisting of one carboplatin resistant and one sensitive tumor type were established for in vivo evaluation of carboplatin-DNA monoadduct formation and repair in tumor tissue and for in vivo evaluation of tumor response to therapeutic dosing with carboplatin. Tumor xenografts were established in 1-2 month old nude mice by injecting approximately one million cells into the left and right flanks, and allowed to develop tumors of less than 1 cm^3 over approximately 4 weeks prior to DNA adduct studies. Mice bearing resistant and sensitive tumors were exposed to either a microdose or therapeutic dose of carboplatin by tail vein injection. DNA isolated from tumor tissue was evaluated for carboplatin-DNA monoadduct frequency levels as a function of time. For tumor response, mice bearing resistant and sensitive tumors were therapeutically treated with a single IV injection of 37.3 mg/kg of carboplatin and then examined for tumor growth as assessed by measuring palpable tumors with a caliper and calculating tumor volume.
(§7) Mice xenografted with sensitive (H232A) and resistant (A549) lung cancer cell lines were infused with a therapeutic dose of carboplatin to assess tumor response. The tumors were measured daily over 14 days post infusion (FIG. 10C). Tumor size was normalized as the ratio of tumor diameter to the tumor diameter measured on day 0 (no change=1.0). […]

Another series relates to H23 2A tumor xenograph. The description is as above. In kind it is in vivo, nude mice. Particulars: H23 2A xenograph; single IV 37.3 mg/kg; 14 days.
Excerpt: as §6, §7

Series [9] in a line: Human plasma pharmacokinetics of carboplatin microdose, liquid scintillation counting. In kind it is in vivo. To be noted: four patients. As for the experimental part: Although the pharmacokinetics of carboplatin are well known for therapeutic doses, it is not known if human pharmacokinetic parameters obtained using a microdose of carboplatin will track those obtained with therapeutic carboplatin dosing. […] This is a requirement for this diagnostic assay to be predictive of response to a therapeutic dose. The pharmacokinetics of microdose carboplatin were also measured in several different patients along with the kinetics of carboplatin-DNA monoadduct formation and repair in PBMC to establish that 24 hours post administration of a microdose of carboplatin is an appropriate time for sampling a patient for this predictive diagnostic assay.
Two of the bladder cancer patients received two doses of [^14C]carboplatin, including the initial diagnostic microdose and a second microdose at the time of full therapeutic dose. This allowed us to compare the pharmacokinetics of carboplatin in plasma after both microdosing and therapeutic dosing (FIG. 11A). […] Therefore, microdosing and therapeutic dosing yield similar carboplatin pharmacokinetics in human patients.
The pharmacokinetics of carboplatin administered as a microdose was assessed in four patients (two with bladder cancer and two with NSLC) for the purpose of comparing interpatient variability and establishing the optimum time point for tumor biopsy sample acquisition.

The mark [10] stands for this setting: 5637 (parental, Example 11), MTT.
Where [11] appears, read: 24 hour culture without oxaliplatin.

Method for cancer patients: Radiolabeled carboplatin containing C^14 carbon atoms in the cyclobutane dicarboxylic acid group was formulated for human use as a sterile, pyrogen free solution at 5 mg/mL in water. […] Microdoses of the [^14C]Carboplatin were administered to human cancer patients as a diagnostic reagent, followed by full dose platinum-based chemotherapy and evaluation of response. Within four weeks of the [^14C]carboplatin microdose, these patients received standard of care chemotherapy for their disease, which included either carboplatin or cisplatin. […] Toxicity of the [^14C]carboplatin diagnostic reagent administered as a microdose was assessed using Common Terminology Criteria for Adverse Events (CTCAE).
The dose of carboplatin in the diagnostic microdose was chosen to be sub-toxic and non-therapeutic, to minimize patient chemical and radiation exposure, and to result in AMS measurable carboplatin-DNA monoadducts. Nineteen patients have been administered at least one microdose of [^14C]carboplatin via IV infusion as a diagnostic reagent. Patient toxicity related to the microdose was monitored from the time of IV microdose until the patients received their first chemotherapy.

With `CN(Cc1cnc2nc(N)nc(N)c2n1)c1ccc(C(=O)N[C@@H](CCC(=O)O)C(=O)O)cc1` [methotrexate], the IC50 with 5637R [1] (MTT) was 1240 nM; in the series with 5637 [2] (setting [10]), 2010 nM.

With `CC[C@]1(O)C[C@@H]2CN(CCc3c([nH]c4ccccc34)[C@@](C(=O)OC)(c3cc4c(cc3OC)N(C)[C@H]3[C@@](O)(C(=O)OC)[C@H](OC(C)=O)[C@]5(CC)C=CCN6CC[C@]43[C@@H]65)C2)C1` [vinblastine], the values for the IC50 in the series on 5637R [1] and with 5637 [2] (5637) were 0.61 nM and 0.6 nM, respectively.

For `N[C@@H]1CCCC[14C@H]1N.O=C([O-])C(=O)[O-].[Pt+2]` [[^14C]oxaliplatin], the “maximum oxaliplatin-DNA adducts in PBMC” value in the series with PBMC (metastatic breast cancer patient, microdose, first 4 hours) is 8 adducts per 10^8 nt. In addition, in the series on PBMC (three colorectal patients, PBMC), the “range of microdose-induced adduct levels (frequencies)” value is listed as 0.1-6 adducts per 10^8 nt. Moreover, the “DNA damage concentrations (total oxaliplatin-DNA adducts)” value was 50-100 oxaliplatin-DNA adducts per 10^8 nt in series [3] (microdose, 0.1 μM oxaliplatin for 4 hours) and 5,000-10,000 oxaliplatin-DNA adducts per 10^8 nt in series [3] (therapeutic dose, 10 μM oxaliplatin for 4 hours). The “oxaliplatin-DNA adducts at 24 hours” value in the series on 5637R [4] (10 μM for 24 hours) is listed as 259.2±37.3 adducts per 10^8 nucleotide; in the series on 5637 [5] (10 μM for 24 hours) it was 710.0±32.2 adducts per 10^8 nucleotide. Besides, the repair rate is on record as 3.48±0.15 adducts per 10^8 nucleotide-hour in the series on 5637R [4] (setting [11]) and 1.34±0.30 adducts per 10^8 nucleotides-hour in the series on 5637 [5] (setting [11]). Moreover, the “area under curve (AUC) of oxaliplatin-DNA adducts” value is recorded as 9,426±2457 adducts per 10^8 nucleotide-hour with 5637R [4] (48 hour study time period) and 27,720±2,985 adducts per 10^8 nucleotide-hour in the series on 5637 [5] (48 hour study time period). In addition, the stability to freeze/thaw result in [6] is on record as “stable to free/thaw with no observed precipitation”. Further, the “loss of radiopurity per year” value in [6] (storage at −20° C.) was less than 2%. Besides, the “tolerability of the radiolabeled microdose” value in the series on cancer patients is given as “well tolerated”. Besides, in series [7], the “T1/2 (α), first (fast) phase” value was found to be 13.3 min.

Consider `COc1cccc2c1C(=O)c1c(O)c3c(c(O)c1C2=O)C[C@@](O)(C(=O)CO)C[C@@H]3O[C@H]1C[C@H](N)[C@H](O)[C@H](C)O1` [doxorubicin], for which the figures for the IC50 in the series on 5637R [1] (MTT) and in the series with 5637 [2] (setting [10]) were 270 nM and 290 nM, respectively.

Consider `O=C1[O][Pt]2([NH][C@@H]3CCCC[C@H]3[NH]2)[O]C1=O` [oxaliplatin, reference compound], for which the Cmax in series [8] (therapeutically treated patients, read-out: plasma Cmax) is approximately 10 µM.

Regarding `Nc1ccn([C@@H]2O[C@H](CO)[C@@H](O)C2(F)F)c(=O)n1` [gemcitabine], the IC50 in the series on 5637R [1] (MTT) stood at 1440 nM; in the series with 5637 [2] (setting [10]), 120 nM.

Regarding `N.N.O=C([O-])C1(C(=O)[O-])CCC1.[Pt+2]` [carboplatin], the “tumor response (tumor growth)” value with A549 tumor xenograph was “continued to grow”; in the series on H23 2A tumor xenograph, “did not display any growth”. For the same molecule, the “in vivo half-life in patients” value in [8] (in vivo) was 78 to 360 min. The “time to clearance from the blood” value in series [9] was not above 24 h.

The values are drawn from US11474106B2, “Methods for cytotoxic chemotherapy-based predictive assays” (ACCELERATED MEDICAL DIAGNOSTICS, INC., priority 2015, dated 2022).
